Tests used:
Type in all cases: cell-based
[1] = system: Normal human dermal fibroblasts; test: Proliferation of dermal fibroblasts (sulforhodamin B stain, cell number); details: for Sulforhodamin B Stain - Cell Number / Sulforhodamin B Stain - Cell Number (% Increase): 3 days; for Sulforhodamin B Stain - Cell Number: control 313; for Sulforhodamin B Stain - Cell Number (% Increase): vs 0 ug/ml control
Protocol: (§1) The effect of peptide manganese complexes on the growth and viability of fibroblasts was determined. Normal human dermal fibroblasts were seeded into a 96-well cell culture plate and grown to confluence in high glucose media supplemented with 10% fetal calf serum for 3 days. The fibroblasts were then placed in low glucose media with 2% serum and various amounts of a representative peptide manganese complex. After 3 days, the cells were incubated with neutral red to assess their viability and stained with sulforhodamin B and counted to determine the number of cells.

[2] = system: Normal human dermal fibroblasts; test: Stimulation of collagen type I formation in fibroblasts (sandwich ELISA of culture media); details: for ELISA Collagen Type I / ELISA Collagen Type I (% Increase): 3 days; for ELISA Collagen Type I: low glucose media with 2% serum, control 48; for ELISA Collagen Type I (% Increase): vs 0 ug/ml control
Protocol: The effect of peptide manganese complexes on collagen formation was determined by determining the amount of collagen type I produced by human fibroblasts in cell culture. Normal human dermal fibroblasts were seeded into a 96-well cell culture plate and grown to confluence in high glucose media supplemented with 10% fetal calf serum for 3 days. The fibroblasts were then placed in low glucose media with 2% serum and various amounts of a representative peptide manganese complex. After 3 days, the culture media was collected and analyzed for collagen type I content by a sandwich ELISA assay using purified antibody to collagen type I.

[3] = system: Normal human dermal fibroblasts; test: Viability of dermal fibroblasts (neutral red stain); details: for Neutral Red Stain - Cell Viability: 3 days, control 212
Protocol: as §1

glycyl-L-histidyl-L-lysine:manganese(II)
Sulforhodamin B Stain - Cell Number ([1]; 10 ug/ml complex): 383 | Sulforhodamin B Stain - Cell Number (% Increase) ([1]; 10 ug/ml complex): +22% | Sulforhodamin B Stain - Cell Number ([1]; 100 ug/ml complex): 535 | Sulforhodamin B Stain - Cell Number (% Increase) ([1]; 100 ug/ml complex): +71% | Effect on proliferation of normal human dermal fibroblasts (in words) ([1]; summary of Table 5): stimulated the proliferation | ELISA Collagen Type I ([2]; 10 ug/ml complex): 61.5 | ELISA Collagen Type I (% Increase) ([2]; 10 ug/ml complex): +28% | ELISA Collagen Type I ([2]; 100 ug/ml complex): 102.5 | ELISA Collagen Type I (% Increase) ([2]; 100 ug/ml complex): +129% | Effect on formation of collagen type I (in words) ([2]; summary of Table 4): stimulated the formation of collagen type I | Neutral Red Stain - Cell Viability ([3]; 10 ug/ml complex): 231 | Neutral Red Stain - Cell Viability ([3]; 100 ug/ml complex): 253 | Effect on viability of normal human dermal fibroblasts (in words) ([3]; summary of Table 6): increased their viability

Reference: patent US7384916B2, “Methods and compositions for preventing and treating aging or photodamaged skin” (ProCyte Corporation, priority 2005, dated 2008)
